Experiment [1] is described as follows: microbe, parasite or virus in culture. The conditions noted are these: Mycobacterium tuberculosis, 96 h, read-out: pIC50 (converted).
Experiment [2] can be described thus: microbe, parasite or virus in culture. The note with it: Mycobacterium tuberculosis, 72 h, read-out: pIC50 (converted).

`NC(=O)c1cnc(NC2CCc3ccccc32)c(Cl)c1` (stereo unspecified): the IC50 in experiment [1] was 196 µM; in experiment [2], 199 µM.
For `CC(Cn1c(=O)[nH]c2ccccc2c1=O)N1CCCC1` (stereo unspecified), in that order: 111 µM and 63.1 µM.
For `N#Cc1ccc(C(=O)NCC2CC2)cc1`, the IC50 in experiment [1] and in experiment [2] was 123 µM throughout.
As for `CC(=O)N1CCc2onc(-c3ccc(F)c(F)c3)c2C1`, the IC50 in experiment [1] was 262 µM; in experiment [2], 393 µM.
Take `CCc1cccc2c1N(C(=O)[C@@H](N)CC)CC2`: the IC50 in experiment [1] was above 501 µM; in experiment [2], 244 µM.
In the case of `Clc1cnc(NCCNCc2cc[nH]n2)c(Cl)c1`, the IC50 was above 501 µM in experiment [1] and 227 µM in experiment [2].
`COCCNC(=O)COc1ccc2c(c1)OCO2`: the IC50 in experiment [1] was 62.9 µM; in experiment [2] it was 128 µM.
Take `CC(Nc1ccc2c(c1)CCC2)c1nc(C2CC2)no1` (stereo unspecified): the IC50 in experiment [1] was 0.183 µM; in experiment [2], 0.704 µM.
With `CN(C)S(=O)(=O)c1ccc(F)c(NC(=O)COCC2CC2)c1`, the IC50 was above 50.1 µM in experiment [1] and 10.3 µM in experiment [2].
Take `Cc1ccc(OCC(=O)NC2(C#N)CCSCC2)cc1C`: the values for the IC50 in experiment [1] and in experiment [2] were 2.04 µM and 20.7 µM, respectively.
For the molecule `CCNc1ccnc(N2Cc3cnn(Cc4ccc(F)cc4)c3C2)n1`, the results for the IC50 in experiment [1] and in experiment [2] were 27.4 µM and above 50.1 µM, respectively.
Turning to `Cc1ncc(Cn2cc(F)ccc2=O)s1`, the IC50 in experiment [1] and in experiment [2] was above 501 µM in each case.
As for `CC(C)CCNC(=O)Cn1c(=O)oc2ccccc21`, the IC50 in experiment [1] was 274 µM; in experiment [2], 401 µM.
On to `NCCn1cc(C(=O)NCCSC2CCCCC2)nn1`, for which the IC50 in experiment [1] was 129 µM; in experiment [2] it was 178 µM.
Regarding `CC(C)c1ccc(NC(=O)C2COCCN2C)cc1` (stereo unspecified), the IC50 is above 501 µM in experiment [1] and 151 µM in experiment [2].
For `CCCOc1cc(CNC(=O)c2csnc2C)ccn1`, in that order: 215 µM and 350 µM.
For `NCCCNS(=O)(=O)c1ccc(Br)c(F)c1`, the IC50 is above 501 µM in experiment [1] and 189 µM in experiment [2].
`COc1ccccc1N1CCC(N)C1` (stereo unspecified): the IC50 in experiment [1] is 64.3 µM; in experiment [2] it was 30.5 µM.
The corresponding values for `CCCC(C)NC(=O)c1coc(C)n1` (stereo unspecified) are above 501 µM and above 501 µM.
Regarding `CN(C)C(C)(C)CNC(=O)NCCC1CCCCO1` (stereo unspecified), the IC50 in experiment [1] and in experiment [2] was above 501 µM each time.
With `N#CCC1(O)CN(S(=O)(=O)C=Cc2ccc(Cl)cc2)C1`, the IC50 in experiment [1] was above 501 µM; in experiment [2], 287 µM.
In the case of `Cc1nnc(N2CC[C@@H](OCC3CC3)[C@@H](Cc3ccccc3)C2)s1`, the IC50 in experiment [1] was above 50.1 µM; in experiment [2], 38.3 µM.
For `CN(CC(=O)Nc1ccsc1)C(=O)c1ccco1`, the IC50 in experiment [1] and in experiment [2] was above 501 µM in each case.
Consider `COCc1nn(Cc2csc(C(C)C)n2)c(=O)o1`, for which the IC50 in experiment [1] is 22.5 µM; in experiment [2], 14.9 µM.
For the molecule `CC(C)NC(=O)CSc1nc(C=Cc2cccs2)n[nH]1`, the IC50 is 103 µM in experiment [1] and 122 µM in experiment [2].
For `COc1cccc(-c2ncc(CN3CC[C@H]4CC[C@@H](C3)N4)s2)c1`, in that order: 24.5 µM and 41.2 µM.
With `Cc1ncsc1C(=O)NC1CCCCNC1=O` (stereo unspecified), the IC50 in experiment [1] and in experiment [2] was above 501 µM throughout.
`COc1cc(Cl)ccc1CN`: the IC50 in experiment [1] is 279 µM; in experiment [2], above 501 µM.
Regarding `COc1ccc(NC(=O)CNc2ccc(Br)cc2F)cc1`, the IC50 in experiment [1] and in experiment [2] was above 50.1 µM throughout.
In the case of `O=C(NC1CCCOc2ccccc21)c1ccncc1` (stereo unspecified), the IC50 in experiment [1] and in experiment [2] was above 501 µM throughout.
With `OCCNCCNCc1ccc(-c2ccccc2F)o1`, the figures for the IC50 in experiment [1] and in experiment [2] were 40.9 µM and 211 µM, respectively.
For `Cc1nc(CNC(=O)c2cc(C3CC3)[nH]n2)cs1`, in that order: above 501 µM and above 501 µM.
Take `CCCc1ccc(CN2C[C@H](OCC)[C@@H](O)C2)o1`: the values for the IC50 in experiment [1] and in experiment [2] were 241 µM and 298 µM, respectively.
